Experimental data taken from patent publication US8609647B2, “Nitrogen-containing spirocyclic compounds and pharmaceutical uses thereof” (Japan Tobacco Inc., priority 2009, dated 2013).

Molecular target: hJAK3 kinase domain (aa781-end) (Homo sapiens (Human), UniProt P52333)
Assay: JAK3 activity inhibition, kinase reaction (HTRF, TK substrate-biotin)
Procedure: JAK3 activity inhibitory effects of test compounds were evaluated by the following kinase reactions.
In the kinase reactions, fused proteins (6His tag-fused hJAK3 kinase domain (aa781-end)) which were coexpressed in Sf21 cells and purified by Ni2+/NTA agarose were used.
A well in which ATP was not added was set out as a blank well.
Plates were let stand at room temperature for 10 minutes from starting reactions.
One hour after the addition of the buffer for detection, fluorescence counts of each well were measured by a fluorescence microplate reader.
Data were obtained by deducting the average Ratio of a blank well from Ratio of each well.

Chain of hJAK3 kinase domain (aa781-end) (P52333 781-1124 limits assumed): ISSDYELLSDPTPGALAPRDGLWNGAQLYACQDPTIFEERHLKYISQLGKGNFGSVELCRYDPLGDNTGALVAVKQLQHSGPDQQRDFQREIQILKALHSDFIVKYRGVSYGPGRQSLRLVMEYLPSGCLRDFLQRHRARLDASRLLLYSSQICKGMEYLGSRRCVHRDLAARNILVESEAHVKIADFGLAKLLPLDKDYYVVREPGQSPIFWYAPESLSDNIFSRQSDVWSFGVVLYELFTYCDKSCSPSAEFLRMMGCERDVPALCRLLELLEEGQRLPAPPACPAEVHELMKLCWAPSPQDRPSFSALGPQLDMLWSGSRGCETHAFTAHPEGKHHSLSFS

## N#CCCN1CCCC12CCN(c1ncnc3[nH]ccc13)C2 (racemic) [Compound 53]
  IC50: 56 nM

## c1ccc(CN2CCCC23CCN(c2ncnc4[nH]ccc24)C3)cc1 (racemic) [Compound 90]
  IC50: 550 nM

## N#CCC(=O)N1CCCCC12CCN(c1c(Cl)cnc3[nH]ncc13)C2 (racemic) [Compound 93]
  IC50: 110 nM
